Patent US8039487B2, “Piperidine-amide derivatives” (Hoffmann-La Roche Inc., priority 2007, dated 2011)

These compounds were tested against T1, liver carnitine palmitoyl transferase 1 (L-CPT1) (Homo sapiens, UniProt P50416) (assay: L-CPT1 inhibition, spectrophotometric CPT activity assay with DTNB (Ellman's reagent)). Conditions: human liver CPT1 expressed in P. pastoris, cell extracts; carnitine 500 μM, palmitoyl-CoA 80 μM, DTNB 300 μM, pH 7.4.
T1 construct: made in house; host or cells: Pichia pastoris strain X-33 (crude cell-free extract)
T1 sequence (P50416 1-773): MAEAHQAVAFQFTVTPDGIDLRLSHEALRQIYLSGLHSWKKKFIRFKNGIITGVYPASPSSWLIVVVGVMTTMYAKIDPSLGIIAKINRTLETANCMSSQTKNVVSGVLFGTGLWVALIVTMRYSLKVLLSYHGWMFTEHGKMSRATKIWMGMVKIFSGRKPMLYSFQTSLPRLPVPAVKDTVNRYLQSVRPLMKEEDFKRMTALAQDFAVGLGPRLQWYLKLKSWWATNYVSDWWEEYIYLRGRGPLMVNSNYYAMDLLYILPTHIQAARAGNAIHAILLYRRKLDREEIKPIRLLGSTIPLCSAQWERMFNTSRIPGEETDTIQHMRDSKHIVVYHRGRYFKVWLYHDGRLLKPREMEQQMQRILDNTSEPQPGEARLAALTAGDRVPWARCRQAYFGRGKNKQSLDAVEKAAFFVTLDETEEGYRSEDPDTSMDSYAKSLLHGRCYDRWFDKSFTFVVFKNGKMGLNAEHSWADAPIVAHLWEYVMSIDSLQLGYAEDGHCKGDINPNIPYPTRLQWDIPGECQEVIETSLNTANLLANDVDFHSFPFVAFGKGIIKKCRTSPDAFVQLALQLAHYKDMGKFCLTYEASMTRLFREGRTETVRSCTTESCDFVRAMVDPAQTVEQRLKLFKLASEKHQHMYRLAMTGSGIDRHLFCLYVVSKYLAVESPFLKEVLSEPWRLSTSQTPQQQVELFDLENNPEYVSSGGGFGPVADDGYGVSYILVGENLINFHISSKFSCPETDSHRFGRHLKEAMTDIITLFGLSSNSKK
Type: biochemical
Description: The following tests were carried out in order to determine the activity of the compounds of the present invention. Background information on the performed assays can be found in: Jackson et al., 1999, Biochem. J. 341, 483-489 and Jackson et al., 2000, J. Biol. Chem. 275, 19560-19566.
Human liver and muscle CPT1 cDNAs and rat CPT2 cDNA were subcloned in pGAPZB or pGAPZA, respectively. These plasmids were used to transform P. pastoris strain X-33 via electroporation after the preparation of electrocompetent cells. High copy number clones were selected where necessary using 0.5 or 1 mg/ml Zeocin. Cultures for activity measurements were induced for 16 h in YPD medium (1% yeast extract, 2% peptone, 2% glucose). Crude cell extracts were prepared by disrupting the cells with glass beads or French Press, depending on fermenter sizes. After centrifugation, the cell-free extracts were resuspended in cell breaking buffer (50 mM Tris, pH7.4, 100 mM KCl, 1 mM EDTA) in the presence of a protease inhibitor cocktail, before aliquoting and freezing at −20° C.
CPT activity was measured using a spectrophotometric assay using 5,5′-dithio-bis-(2-nitrobenzoic acid) (DTNB) also called Ellman's reagent. The HS-CoA released on the formation of acylcarnitine from carnitine (500 μM) and palmitoyl-CoA (80 μM) reduced DTNB (300 μM) forming 5-mercapto-(2-nitrobenzoic acid) which absorbed at 410 nm with a molar extinction coefficient of 13600 M^−1cm^−1. The assay buffer contained 120 mM KCl, 25 mM Tris, pH 7.4, 1 mM EDTA. This assay was used for the identification of selective inhibitors of the liver CPT1 isoform versus the muscle CPT1 and CPT2 isoforms.

Row | SMILES | IC50 [nM]
1 | COC(=O)c1cccc(-c2nc([C@H]3CCCCN3C(=O)COc3ccccc3)sc2C)c1 [Example 45, 3-{5-Methyl-2-[(R)-1-(2-phenoxy-acetyl)-piperidin-2-yl]-thiazol-4-yl}-benzoic acid methyl ester] | 300
2 | O=C(COc1ccccc1)N1CCCC[C@@H]1c1csc(-c2n[nH]c3ccccc23)n1 [Example 26, 1-{(R)-2-[2-(1H-Indazol-3-yl)-thiazol-4-yl]-piperidin-1-yl}-2-phenoxy-ethanone] | 130
3 | Cc1sc([C@H]2CCCCN2C(=O)COc2ccccc2)nc1-c1cccc(C(=O)O)c1 [Example 46, 3-{5-Methyl-2-[(R)-1-(2-phenoxy-acetyl)-piperidin-2-yl]-thiazol-4-yl}-benzoic acid] | 100
4 | O=C1Cc2cc(-c3csc([C@H]4CCCCN4C(=O)COc4ccccc4)n3)ccc2N1 [Example 14, 5-{2-[(R)-1-(2-Phenoxy-acetyl)-piperidin-2-yl]-thiazol-4-yl}-1,3-dihydro-indol-2-one] | 65.9
5 | N#Cc1cccc(-c2csc([C@H]3CCCCN3C(=O)COc3ccccc3)n2)c1 [Example 21, 3-{2-[(R)-1-(2-Phenoxy-acetyl)-piperidin-2-yl]-thiazol-4-yl}-benzonitrile] | 65
6 | CN(C)c1ccc(-c2csc([C@H]3CCCCN3C(=O)COc3ccccc3)n2)cc1 [Example 18, 1-{(R)-2-[4-(4-Dimethylamino-phenyl)-thiazol-2-yl]-piperidin-1-yl}-2-phenoxy-ethanone] | 420
7 | O=C(COc1ccccc1)N1CCCC[C@@H]1c1nc(-c2ccccc2)cs1 [Example 2, 2-Phenoxy-1-[(R)-2-(4-phenyl-thiazol-2-yl)-piperidin-1-yl]-ethanone] | 268
8 | COC(=O)c1ccc(-c2nc([C@H]3CCCCN3C(=O)COc3ccccc3)cs2)cc1 [Example 36, 4-{4-[(R)-1-(2-Phenoxy-acetyl)-piperidin-2-yl]-thiazol-2-yl}-benzoic acid methyl ester] | 365
9 | O=C(COc1ccccc1)N1CCCC[C@@H]1c1nc(-c2ccc(Cl)nc2)cs1 [Example 22, 1-{(R)-2-[4-(6-Chloro-pyridin-3-yl)-thiazol-2-yl]-piperidin-1-yl}-2-phenoxy-ethanone] | 95
10 | O=C(O)c1cccc(-c2csc([C@H]3CCCCN3C(=O)COc3ccccc3)n2)n1 [Example 42, 6-{2-[(R)-1-(2-Phenoxy-acetyl)-piperidin-2-yl]-thiazol-4-yl}-pyridine-2-carboxylic acid] | 37.7
11 | O=C(O)c1ccc(-c2nc([C@H]3CCCCN3C(=O)COc3ccccc3)cs2)cc1 [Example 41, 4-{4-[(R)-1-(2-Phenoxy-acetyl)-piperidin-2-yl]-thiazol-2-yl}-benzoic acid] | 296
